Measurements published in ChEMBL document CHEMBL4402609, “Optimization of Hydantoins as Potent Antimycobacterial Decaprenylphosphoryl-β-d-Ribose Oxidase (DprE1) Inhibitors” (J Med Chem, 2020).

Legend:
[1] = Lipophilicity, log D of compound at pH 7.4 by chromatographic method; type: physicochemical; settings: buffer
[2] = AUC in C57BL/6J mouse blood infected with Mycobacterium tuberculosis H37Rv at 170 mg/kg, po administered once daily for 4 consecutive days starting from 5 days post infection and measured up to 6 hrs post dose; type: ADME, organism-based; parameters: time < 6 hr, dose 170 mg/kg, route oral
[3] = Cmax in C57BL/6J mouse blood infected with Mycobacterium tuberculosis H37Rv at 170 mg/kg, po administered once daily for 4 consecutive days starting from 5 days post infection; type: ADME, organism-based; parameters: dose 170 mg/kg, route oral
[4] = Intrinsic clearance in mouse microsomes assessed as per gram protein at 0.5 uM after 30 mins in presence of NADPH by LC-MS/MS analysis; type: ADME, Microsome; settings: 0.5 h
[5] = Cmax in C57BL/6J mouse blood infected with Mycobacterium tuberculosis H37Rv at 200 mg/kg, po administered once daily for 4 consecutive days starting from 5 days post infection; type: ADME, organism-based; parameters: dose 200 mg/kg, route oral
[6] = Intrinsic clearance in human microsomes assessed as per gram protein at 0.5 uM after 30 mins in presence of NADPH by LC-MS/MS analysis; type: ADME, Microsome; settings: 0.5 h
[7] = AUC in C57BL/6J mouse blood infected with Mycobacterium tuberculosis H37Rv at 200 mg/kg, po administered once daily for 4 consecutive days starting from 5 days post infection and measured after 24 hrs post dose; type: ADME, organism-based; parameters: dose 200 mg/kg, time < 24 hr, route oral

SMILES | chromatographic logD [1] | further results
CC1(c2ccc(S(N)(=O)=O)cc2)NC(=O)N(CC(=O)c2cccc(C#N)c2)C1=O (racemic) | 2.4 | –
CC1(c2ccc(S(N)(=O)=O)cc2)NC(=O)N(CC(=O)c2ncc(F)cc2F)C1=O (racemic) | 2.39 | –
COc1ccccc1C(=O)CN1C(=O)NC(C)(c2ccc(S(N)(=O)=O)cc2)C1=O (racemic) | 2.98 | –
Cc1ccccc1C(=O)CN1C(=O)NC(C)(c2ccc(C#N)cc2)C1=O (racemic) | 4.73 | –
CC1(c2ccc(C#N)cc2)NC(=O)N(CC(=O)c2ccc(Cl)s2)C1=O (racemic) | 4.85 | –
CC1(c2ccc(N3CCCOC3=O)cc2)NC(=O)N(CC(=O)c2ccc(F)cc2F)C1=O (racemic) | 3.36 | –
CC1(c2ccc(C#N)cc2)NC(=O)N(CC(=O)c2ccccn2)C1=O (racemic) | 2.03 | –
CC1(c2ccc(C#N)cc2)NC(=O)N(CC(=O)c2ccncc2)C1=O (racemic) | 1.16 | –
Cc1ccc(C(=O)CN2C(=O)NC(C)(c3ccc(C#N)cc3)C2=O)cc1 (racemic) | 4.73 | –
C[C@@]1(c2ccc(S(N)(=O)=O)cc2)NC(=O)N(CC(=O)c2ccc(F)cc2F)C1=O | 3.17 | –
CC1(c2ccc(S(N)(=O)=O)cc2)NC(=O)N(CC(=O)c2ccc3ccccc3c2)C1=O (racemic) | 3.93 | –
CC1(c2ccc3c(c2)NC(=O)CO3)NC(=O)N(CC(=O)c2ccc(F)cc2F)C1=O (racemic) | 3.38 | –
CC1(c2ccc(S(N)(=O)=O)cc2)NC(=O)N(CC(=O)c2cccc(C(F)(F)F)c2)C1=O (racemic) | 3.96 | –
COc1cccc(C(=O)CN2C(=O)NC(C)(c3ccc(S(N)(=O)=O)cc3)C2=O)c1 (racemic) | 3 | –
CC1(c2ccc(C#N)cc2)NC(=O)N(CC(=O)c2ccccc2)C1=O (racemic) | 4.19 | –
CC1(c2ccc(S(N)(=O)=O)cc2)NC(=O)N(CC(=O)c2ccccn2)C1=O (racemic) | 4.87 | –
Cc1cccc(C(=O)CN2C(=O)NC(C)(c3ccc(S(N)(=O)=O)cc3)C2=O)c1 (racemic) | 3.36 | –
CNS(=O)(=O)c1ccc(C2(C)NC(=O)N(CC(=O)c3ccc(F)cc3F)C2=O)cc1 (racemic) | 3.88 | –
CC1(c2ccc(-n3cnnn3)cc2)NC(=O)N(CC(=O)c2ccc(F)cc2F)C1=O (configuration not stated) | – | AUC at 6 h [2]: 6380 ng·h/mL; Cmax [3]: 1870 ng/mL
CC(C)(C)C(=O)Oc1cc(F)ccc1C(=O)CN1C(=O)NC(C)(c2ccc(C#N)cc2)C1=O (racemic) | 5.84 | –
CC1(c2ccc(S(=O)(=O)NC3CC3)cc2)NC(=O)N(CC(=O)c2ccc(F)cc2F)C1=O (racemic) | 4.48 | –
COC(=O)c1ccc(C2(C)NC(=O)N(CC(=O)c3ccc(F)cc3F)C2=O)cc1 (racemic) | 4.84 | –
C[C@]1(c2ccc(S(N)(=O)=O)cc2)NC(=O)N(CC(=O)c2ccc(F)cc2F)C1=O | 3.17 | –
CC1(c2ccc(S(N)(=O)=O)cc2)NC(=O)N(CC(=O)c2ccncc2)C1=O (racemic) | 2.46 | –

SMILES | chromatographic logD [1] | further results
CC1(c2ccc(C#N)cc2)NC(=O)N(CC(=O)c2ccc(F)c(C(F)(F)F)c2)C1=O (racemic) | 5.38 | –
CC1(c2ccc(S(N)(=O)=O)cc2)NC(=O)N(CC(=O)c2nccs2)C1=O (racemic) | 1.9 | –
CC1(c2ccc(S(N)(=O)=O)cc2)NC(=O)N(CC(=O)c2ccc(F)c(Cl)c2)C1=O (racemic) | 3.82 | –
CC1(c2ccc(S(N)(=O)=O)cc2)NC(=O)N(CC(=O)c2cccc(F)c2)C1=O (racemic) | 3.08 | –
CC1(c2ccc(S(N)(=O)=O)cc2)NC(=O)N(CC(=O)c2ccccc2)C1=O (racemic) | 2.81 | –
CC1(c2ccc(S(N)(=O)=O)cc2)NC(=O)N(CC(=O)c2ccccc2F)C1=O (racemic) | 2.94 | –
CC1(c2ccc(S(N)(=O)=O)cc2)NC(=O)N(CC(=O)c2cc(C(F)(F)F)cc(C(F)(F)F)c2)C1=O (racemic) | 4.9 | –
CC1(c2ccc(C#N)cc2)NC(=O)N(CC(=O)c2ccc(F)cc2O)C1=O (racemic) | 4.56 | –
CN(C)S(=O)(=O)c1ccc(C2(C)NC(=O)N(CC(=O)c3ccc(F)cc3F)C2=O)cc1 (racemic) | 4.6 | –
CC1(c2ccc(NS(=O)(=O)c3ccccc3)cc2)NC(=O)N(CC(=O)c2ccc(F)cc2F)C1=O (racemic) | 4.9 | –
CC1(c2ccc(S(N)(=O)=O)cc2)NC(=O)N(CC(=O)c2ccc(F)cc2O)C1=O (racemic) | 3.12 | –
CC1(c2ccc(C#N)cc2)NC(=O)N(CC(=O)c2cccc(F)c2)C1=O (racemic) | 4.39 | –
CC1(c2ccc(NC(N)=O)cc2)NC(=O)N(CC(=O)c2ccc(F)cc2F)C1=O (racemic) | 2.71 | –
CC1(c2ccc(S(N)(=O)=O)cc2)NC(=O)N(CC(=O)c2nc3ccccc3s2)C1=O (racemic) | 3.78 | –
CC(=O)CN1C(=O)NC(C)(c2ccc(S(N)(=O)=O)cc2)C1=O (racemic) | 0.54 | –
CC1(c2ccc(S(N)(=O)=O)cc2)NC(=O)N(CC(=O)c2ccc(C#N)cc2)C1=O (racemic) | 2.54 | –
CC1(c2ccc(S(N)(=O)=O)cc2)NC(=O)N(CC(=O)C23CC4CC(CC(C4)C2)C3)C1=O (racemic) | 2.52 | –
CC1(c2ccc(S(N)(=O)=O)cc2)NC(=O)N(CC(=O)c2ccc(Cl)s2)C1=O (racemic) | 3.52 | –
Cc1ccc(C(=O)CN2C(=O)NC(C)(c3ccc(S(N)(=O)=O)cc3)C2=O)cc1 (racemic) | 3.33 | –
CC1(c2ccc(S(N)(=O)=O)cc2)NC(=O)N(CC(=O)c2cccc([N+](=O)[O-])c2)C1=O (racemic) | 2.77 | –
CC1(c2ccc(S(N)(=O)=O)cc2)NC(=O)N(CC(=O)c2ccccc2C(F)(F)F)C1=O (racemic) | 3.56 | –
CC1(c2ccc(S(N)(=O)=O)cc2)NC(=O)N(CC(=O)c2ccc(F)c(C(F)(F)F)c2)C1=O (racemic) | 4.24 | –
CC1(c2ccc(C(=O)O)cc2)NC(=O)N(CC(=O)c2ccc(F)cc2F)C1=O (racemic) | 1.49 | –
CC1(c2ccc(-c3nnn[nH]3)cc2)NC(=O)N(CC(=O)c2ccc(F)cc2F)C1=O (racemic) | 1.85 | –

SMILES | chromatographic logD [1] | further results
CC1(c2ccc(C(N)=O)cc2)NC(=O)N(CC(=O)c2ccc(F)cc2F)C1=O (racemic) | 2.68 | –
CC1(c2ccc(S(N)(=O)=O)cc2)NC(=O)N(CC(=O)c2cccs2)C1=O (racemic) | 2.35 | –
CC1(c2ccc(CS(C)(=O)=O)cc2)NC(=O)N(CC(=O)c2ccc(F)cc2F)C1=O (racemic) | 3.54 | –
CC1(c2ccc(S(N)(=O)=O)cc2)NC(=O)N(CC(=O)c2ccc(F)cc2)C1=O (racemic) | 3.03 | –
Cc1cccc(C(=O)CN2C(=O)NC(C)(c3ccc(C#N)cc3)C2=O)c1 (racemic) | 4.71 | –
CCCCS(=O)(=O)Nc1ccc(C2(C)NC(=O)N(CC(=O)c3ccc(F)cc3F)C2=O)cc1 (racemic) | 4.96 | –
CC1(c2ccc(S(N)(=O)=O)cc2)NC(=O)N(CC(=O)c2cccnc2)C1=O (racemic) | 3.48 | –
COc1ccc(C(=O)CN2C(=O)NC(C)(c3ccc(S(N)(=O)=O)cc3)C2=O)cc1 (racemic) | 2.86 | –
CC1(c2ccc(S(N)(=O)=O)cc2)NC(=O)N(CC(=O)C2CC2)C1=O (racemic) | 1.51 | –
CC1(c2ccc(NS(=O)(=O)C(F)(F)F)cc2)NC(=O)N(CC(=O)c2ccc(F)cc2F)C1=O (racemic) | 3.24 | –
CC1(c2ccc(S(=O)(=O)NCC(F)(F)F)cc2)NC(=O)N(CC(=O)c2ccc(F)cc2F)C1=O (racemic) | 4.78 | –
CC1(c2ccc(S(=O)(=O)N3CCOCC3)cc2)NC(=O)N(CC(=O)c2ccc(F)cc2F)C1=O (racemic) | 4.39 | –
CC1(c2ccc(S(=O)(=O)Nc3ccccc3)cc2)NC(=O)N(CC(=O)c2ccc(F)cc2F)C1=O (racemic) | 5.03 | –
CC1(c2ccc(S(N)(=O)=O)cc2)NC(=O)N(CC(=O)c2ccc(C(F)(F)F)cc2)C1=O (racemic) | 4.15 | –
CC1(c2ccc(C#N)cc2)NC(=O)N(CC(=O)c2cccnc2)C1=O (racemic) | 1.16 | –
CC1(c2ccc(S(N)(=O)=O)cc2)NC(=O)N(CC(=O)c2ccc(F)c(F)c2)C1=O (racemic) | 3.34 | –
CC1(c2ccc(C#N)cc2)NC(=O)N(CC(=O)c2cccc(OC(F)(F)F)c2)C1=O (racemic) | 5.5 | –
CC1(c2ccc(S(N)(=O)=O)cc2)NC(=O)N(CC(=O)c2ccc(F)cc2F)C1=O (racemic) | 3.19 | clearance [4]: 2.67 mL/min/g; Cmax [5]: 6380 ng/mL; clearance [6]: < 0.4 mL/min/g; AUC at 24 h [7]: 31400 ng·h/mL
CC1(c2ccc(C#N)cc2)NC(=O)N(CC(=O)c2ccccc2F)C1=O (racemic) | 4.3 | –
Cc1ccccc1C(=O)CN1C(=O)NC(C)(c2ccc(S(N)(=O)=O)cc2)C1=O (racemic) | 3.3 | –
CC1(c2ccc(S(N)(=O)=O)cc2)NC(=O)N(CC(=O)c2ccc(Cl)cc2Cl)C1=O (racemic) | 4.11 | –
CC1(c2ccc(S(N)(=O)=O)cc2)NC(=O)N(CC(=O)c2cccc(Br)c2)C1=O (racemic) | 3.77 | –
CC1(c2ccc(S(N)(=O)=O)cc2)NC(=O)N(CC(=O)C2CCCCC2)C1=O (racemic) | 3.62 | –
CC1(c2ccc(S(N)(=O)=O)cc2)NC(=O)N(CC(=O)c2cccc(OC(F)(F)F)c2)C1=O (racemic) | 4.14 | –
